Source: patent US11052154B2, “Ras protein degradation inducing molecule and pharmaceutical composition” (Tokyo University of Science Foundation, priority 2016, dated 2021)

Target: T1, endogenous wild-type H-Ras protein (Homo sapiens, UniProt P01112)
T1 construct: an endogenous wild-type K-Ras protein and wild-type H-Ras protein; endogenous in cells; host or cells: HeLa
Experiment: Degradation of endogenous wild-type H-Ras protein in HeLa cells, Western blot analysis
Format: cell-based
Details: 48 hours after addition, vs control (DMSO), FIG. 5
Protocol: In Example 6, degradation (knockdown) of an endogenous wild-type K-Ras protein and wild-type H-Ras protein in HeLa cells to which TUS-007 had been added was evaluated by Western blot analysis.
HeLa cells were seeded in a 24-well plate at a cell density of 8×10^4 cells/well, and then cultured under conditions of 37° C. and 5 vol % CO2 for 16 hours.
After 16 hours from cell seeding, TUS-007 was added to HeLa cells as follows. As a medium, a serum-free medium (37° C.) in which 1 mass % L-glutamine solution (Sigma-Aldrich) was added to D-MEM (high D-glucose, phenol red, sodium pyruvate (Wako Pure Chemical Industries, Ltd.)) was used. It is noted that the L-glutamine solution was added immediately before use. A DMSO solution containing TUS-007 was mixed with the medium so that the concentration of DMSO was 1 vol %, and added to each well at 500 μL/well, and cultured under conditions of 37° C. and 5 vol % CO2. As a control, DMSO was used. […]
After electrophoresis, proteins were transferred to a PVDF membrane (Immobion™-P, Millipore) under conditions of 100 V and 2 hours using a tank-type blotting device and a transfer buffer (25 mM Tris-HCl, 195 mM glycine, 0.01% SDS, 15% methanol). […] Subsequently, the membrane was treated with a chemiluminescence reagent Immobilon™ Western (Millipore), and then chemiluminescence was detected using a lumino image analyzer LAS-3000 (FUJIFILM Corporation). […]

T1 sequence (P01112 whole entry): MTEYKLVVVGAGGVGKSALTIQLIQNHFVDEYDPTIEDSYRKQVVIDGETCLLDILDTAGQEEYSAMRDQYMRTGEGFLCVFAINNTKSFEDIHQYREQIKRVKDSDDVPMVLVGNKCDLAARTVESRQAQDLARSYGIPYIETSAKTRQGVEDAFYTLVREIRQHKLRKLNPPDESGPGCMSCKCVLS

CCC(C)[C@H](NC(=O)CCCCCCNC(=O)[C@H](CC(C)C)NC(=O)CNC(=O)c1cc(Cl)ccc1Cl)C(=O)Nc1ccc2[nH]c(Cc3c[nH]c4ccccc34)nc2c1 (stereo in doubt) [TUS-007]
amount of the endogenous wild-type H-Ras protein (Western blot): the amount of the endogenous wild-type K-Ras protein and wild-type H-Ras protein was reduced
